Data published in PMC7156724, “Potent BRD4 inhibitor suppresses cancer cell-macrophage interaction” (Nature Communications, 2020).
“And” between values parts separate entries of the source, which are not always exact repeats. Equal values may be shown once.

Tests used:
[1] = tested on: phosphorylated BRD4 and c-MYC; test: Western blot of p-BRD4, BRD4 and c-MYC in solid tumor cell lines; format: cell-based, human; settings: 50 nM, 24 h
Experimental: (§1) Fig. 2 NHWD-870 inhibited BRD4 phosphorylation and c-MYC expression, and suppressed cell growth. a Representative western blot analysis of p-BRD4 (s484/488), BRD4, c-MYC, and GAPDH after treatment of MDA-MB231, SUM159, A2780 ES-2, and H526 cells with JQ-1 or NHWD-870 at the indicated concentrations for 24 h. GAPDH served as the loading control. Selected from three independent experiments. b MTT assays of H526, A2780, ES-2, and MDA-MB231 cells treated with JQ-1 or NHWD-870 at the indicated concentrations for 5 days. Data are presented as mean ± SEM from three independent experiments. c, d Clonogenic assays of H526, A2780, ES-2 and MDA-MB231 cells treated with 250 nM JQ-1 or NHWD-870 for 5 days. Shown are representative images (c) and quantification of colonies (d). […] Shown are representative images (e) and quantification of relative colony sizes (f). Scale bar, 50 μm. Data are presented as mean ± SEM from five independent experiments. p values were calculated using two-tailed, unpaired t tests in this figure. **p < 0.01; ***p < 0.001. Source data are provided as a Source Data file. […]
4. Protein extraction and w estern blot anal ysis. Freshly dissected unfixed tissue was homogenized in lysis buffer. The lysates were centrifuged at 13,000g for 10 minutes at 4°C. Supernatants were collected and determined with a Bradford Protein Assay kit (Bio-Rad, Hercules, CA). The cell lysates were subjected to SDS-PAGE followed by immunoblotting (Immobilon P; Millipore, Milford, MA) with specific antibodies followed by detection using an enhanced chemilumine scence kit (Amersham Life Science, Arlington Heights, IL). […]

[2] = tested on: MDA-MB231 triple negative breast cancer (TNBC) cells; test: AlamarBlue assay, MDA-MB231; format: cell-based, human; settings: for Cellular activity in TNBCs (MDA-MB231), alamarBlue: Fig.1f, replicates
Experimental: (§2) 3. AlamarBlue assay. AlamarBlue was made by resazurin sodium salt (Sigma, Cat
(§3) # 199303) dissolved in PBS.
(§4) NCI-H211, MDA-MB231 and A375 cells were plated in 96-well plates at approximately 30% confluence and left overnight to adhere. In the following day, […]
(§5) of treatment, 10 μl AlamarBlue reagent (0.3 mg/ml) was added to each well, and after 18h, the florescence intensity in each well was measured using a top-reading fluorescent plate reader with excitation at 530 nm and emission at 590 nm. […]

MDA-MB231 cells = test: Clonogenic (colony formation) assay, MDA-MB231; format: cell-based, human; settings: MDA-MB231, 250 nM, 5 days
Experimental: as §1
(§6) 5. Colony formation assay. Cells were seeded in 6-well plates at 3,000 cells/well […]
(§7) every week. […] Colony numbers were calculated with imageJ version

H526 cells = test: Clonogenic (colony formation) assay, H526; format: cell-based, human; settings: H526, 250 nM, 5 days
Experimental: as §1, §6, §7

ES-2 cells = test: Clonogenic (colony formation) assay, ES-2; format: cell-based, human; settings: ES-2, 250 nM, 5 days
Experimental: as §1, §6, §7

[3] = tested on: NCI-H211 small cell lung cancer (SCLC) cells; test: AlamarBlue assay, NCI-H211; format: cell-based; settings: for Cellular activity in SCLCs (H211), alamarBlue: Fig.1e, replicates
Experimental: as §2, §3, §4, §5

A2780 cells = test: Clonogenic (colony formation) assay, A2780; format: cell-based, human; settings: A2780, 250 nM, 5 days
Experimental: as §1, §6, §7

[4] = tested on: BRD4 binding to the HIF1α promoter; parameters: method as in PMID 30224758, PMID 29054992; settings: MDA-MB 231 cells ref 45, 46; cited from earlier work

Compound: Cc1sc2c(c1C)C(c1ccc(Cl)cc1)=N[C@@H](CC(=O)OC(C)(C)C)c1nnc(C)n1-2 [JQ1, reference compound]
- effect on phosphorylated BRD4 and c-MYC (western blot) [1]: no effect
- IC50 ([2]; 72 h treatment, nM, read-out: IC50, cellular activity in MDA-MB231 (alamarBlue)): 65 nM
- Cellular activity in TNBCs (MDA-MB231), alamarBlue ([2]; concentration 0.15): 0.75 and 21.87
- Cellular activity in TNBCs (MDA-MB231), alamarBlue ([2]; concentration 0.6): 3.74 and 1.29
- Cellular activity in TNBCs (MDA-MB231), alamarBlue ([2]; concentration 1): 19.01 and 19.44
- Cellular activity in TNBCs (MDA-MB231), alamarBlue ([2]; concentration 1.5): 38.74 and 34.85
- Cellular activity in TNBCs (MDA-MB231), alamarBlue ([2]; concentration 2): 60.7 and 49.9
- Cellular activity in TNBCs (MDA-MB231), alamarBlue ([2]; concentration 2.5): 94.02 and 94.2
- Cellular activity in TNBCs (MDA-MB231), alamarBlue ([2]; concentration 3): 94.26 and 94.75
- Cellular activity in TNBCs (MDA-MB231), alamarBlue ([2]; concentration -0.3): 1.52 and 21.49
- Cellular activity in TNBCs (MDA-MB231), alamarBlue ([2]; concentration -0.9): 8.89 and 26.86
- Clone Number (clonogenic assay) (MDA-MB231 cells): 1294 and 1205 and 1074 and 1155 and 1020
- Clone Number (clonogenic assay) (H526 cells): 627 and 705 and 686 and 632 and 603
- Clone Number (clonogenic assay) (ES-2 cells): 575 and 505 and 619 and 501 and 621
- IC50 ([3]; 72 h treatment, nM, read-out: IC50, cellular activity in NCI-H211 (alamarBlue)): 102 nM
- Cellular activity in SCLCs (H211), alamarBlue ([3]; concentration 0.0169701): 8.89 and 26.86
- Cellular activity in SCLCs (H211), alamarBlue ([3]; concentration 0.0398488): 1.52 and 21.49
- Cellular activity in SCLCs (H211), alamarBlue ([3]; concentration 0.137272): 0.75 and 21.87
- Cellular activity in SCLCs (H211), alamarBlue ([3]; concentration 0.614394): 3.74 and 1.29
- Cellular activity in SCLCs (H211), alamarBlue ([3]; concentration 1.09152): 4.01 and 4.44
- Cellular activity in SCLCs (H211), alamarBlue ([3]; concentration 1.56864): 8.74 and 4.85
- Cellular activity in SCLCs (H211), alamarBlue ([3]; concentration 2.04576): 60.7 and 49.9
- Cellular activity in SCLCs (H211), alamarBlue ([3]; concentration 3): 94.26 and 94.75
- Cellular activity in SCLCs (H211), alamarBlue ([3]; concentration column prints 2.52288): 94.02 and 94.2
- Clone Number (clonogenic assay) (A2780 cells): 839 and 794 and 803 and 802 and 753
- BRD4 binding to the HIF1α promoter (ChIP-seq) [4]: reduced BRD4 binding to the HIF1α promoter
